Species on record: Rattus norvegicus
Test: Open TG-GATES - Regimen: Single
Assay type: toxicity, organism-based, Sprague-Dawley
Set-up: regimen Single, gender Male, age 6 weeks
Settings: in vivo, po, 3 mg/kg, route gavage, dose level Low; for APTT / Bas / Eos / Fbg / Hb / Ht / Lym / MCH / MCHC / MCV / Mono / Neu / PT / Plat / RBC / Ret / WBC: tissue Blood; for KIDNEY_L / KIDNEY_R / KIDNEY_TOTAL: tissue Kidney; for LIVER: tissue Liver; for A/G / ALP / ALT / AST / BUN / CRE / Ca / Cl / DBIL / GLC / IP / K / LDH / Na / PL / RALB / TBIL / TC / TG / TP / gamma-GTP: tissue Plasma

CN(C)CCC(c1ccc(Cl)cc1)c1ccccn1 (configuration not stated) [CHLORPHENIRAMINE]
TERMINAL_BW (3 h): 195.7 g
APTT (3 h): 18 s
Bas (3 h): 0%
Eos (3 h): 0.6%
Fbg (3 h): 281.4 mg/dL
Hb (3 h): 13.4 g/dL
Ht (3 h): 41.7%
Lym (3 h): 72.6%
MCH (3 h): 20.9 pg
MCHC (3 h): 32.2%
MCV (3 h): 64.9 fL
Mono (3 h): 3.4%
Neu (3 h): 22.4%
PT (3 h): 15 s
Plat (3 h): 124.5 x10_4/uL
RBC (3 h): 642.6 x10_4/ul
Ret (3 h): 8.9%
WBC (3 h): 84.7 x10_2/uL
KIDNEY_L (3 h): 0.9 g
KIDNEY_R (3 h): 0.8 g
KIDNEY_TOTAL (3 h): 1.7 g
LIVER (3 h): 8.5 g
A/G (3 h): 0.9
ALP (3 h): 1618.2 IU/L
ALT (3 h): 47 IU/L
AST (3 h): 76 IU/L
BUN (3 h): 9.2 mg/dL
CRE (3 h): 0.2 mg/dL
Ca (3 h): 10.9 mg/dL
Cl (3 h): 106 meq/L
DBIL (3 h): 0.01 mg/dL
GLC (3 h): 179.8 mg/dL
IP (3 h): 10.4 mg/dL
K (3 h): 4.1 meq/L
LDH (3 h): 195 IU/L
Na (3 h): 143.6 meq/L
PL (3 h): 140.2 mg/dL
RALB (3 h): 2.5 g/dL
TBIL (3 h): 0.048 mg/dL
TC (3 h): 77.8 mg/dL
TG (3 h): 53.4 mg/dL
TP (3 h): 5.5 g/dL
gamma-GTP (3 h): 2 IU/L
TERMINAL_BW (6 h): 194.4 g
APTT (6 h): 20 s
Bas (6 h): 0.4%
Eos (6 h): 1%
Fbg (6 h): 296.2 mg/dL
Hb (6 h): 13.2 g/dL
Ht (6 h): 41.3%
Lym (6 h): 75.8%
MCH (6 h): 20.8 pg
MCHC (6 h): 31.9%
MCV (6 h): 65.1 fL
Mono (6 h): 3.4%
Neu (6 h): 19.2%
PT (6 h): 14.9 s
Plat (6 h): 119.3 x10_4/uL
RBC (6 h): 633.8 x10_4/ul
Ret (6 h): 9.5%
WBC (6 h): 83.2 x10_2/uL
KIDNEY_L (6 h): 0.9 g
KIDNEY_R (6 h): 0.9 g
KIDNEY_TOTAL (6 h): 1.8 g
LIVER (6 h): 8.1 g
A/G (6 h): 0.9
ALP (6 h): 1343.4 IU/L
ALT (6 h): 41.4 IU/L
AST (6 h): 71.2 IU/L
BUN (6 h): 7.8 mg/dL
CRE (6 h): 0.2 mg/dL
Ca (6 h): 10.5 mg/dL
Cl (6 h): 108.4 meq/L
DBIL (6 h): 0.004 mg/dL
GLC (6 h): 176 mg/dL
IP (6 h): 10.4 mg/dL
K (6 h): 4.1 meq/L
LDH (6 h): 200 IU/L
Na (6 h): 144.4 meq/L
PL (6 h): 150.2 mg/dL
RALB (6 h): 2.5 g/dL
TBIL (6 h): 0.052 mg/dL
TC (6 h): 89.6 mg/dL
TG (6 h): 42.6 mg/dL
TP (6 h): 5.4 g/dL
gamma-GTP (6 h): 1.4 IU/L
TERMINAL_BW (9 h): 194.2 g
APTT (9 h): 17.4 s
Bas (9 h): 0%
Eos (9 h): 1%
Fbg (9 h): 288.2 mg/dL
Hb (9 h): 12.8 g/dL
Ht (9 h): 39.6%
Lym (9 h): 77.8%
MCH (9 h): 20.9 pg
MCHC (9 h): 32.4%
MCV (9 h): 64.7 fL
Mono (9 h): 2.8%
Neu (9 h): 18%
PT (9 h): 14.8 s
Plat (9 h): 119.5 x10_4/uL
RBC (9 h): 612.4 x10_4/ul
Ret (9 h): 9.2%
WBC (9 h): 71.4 x10_2/uL
KIDNEY_L (9 h): 0.9 g
KIDNEY_R (9 h): 0.9 g
KIDNEY_TOTAL (9 h): 1.8 g
LIVER (9 h): 7.7 g
A/G (9 h): 0.9
ALP (9 h): 1240.8 IU/L
ALT (9 h): 40.6 IU/L
AST (9 h): 71 IU/L
BUN (9 h): 8.2 mg/dL
CRE (9 h): 0.1 mg/dL
Ca (9 h): 10.3 mg/dL
Cl (9 h): 105.8 meq/L
DBIL (9 h): 0.006 mg/dL
GLC (9 h): 165.2 mg/dL
IP (9 h): 10.2 mg/dL
K (9 h): 3.9 meq/L
LDH (9 h): 139 IU/L
Na (9 h): 142.8 meq/L
PL (9 h): 143 mg/dL
RALB (9 h): 2.5 g/dL
TBIL (9 h): 0.046 mg/dL
TC (9 h): 85.4 mg/dL
TG (9 h): 37.2 mg/dL
TP (9 h): 5.3 g/dL
gamma-GTP (9 h): 1 IU/L
TERMINAL_BW (24 h): 214.2 g
APTT (24 h): 15.8 s
Bas (24 h): 0%
Eos (24 h): 1%
Fbg (24 h): 291.4 mg/dL
Hb (24 h): 12.9 g/dL
Ht (24 h): 40.3%
Lym (24 h): 78.2%
MCH (24 h): 20.4 pg
MCHC (24 h): 32.1%
MCV (24 h): 63.5 fL
Mono (24 h): 3%
Neu (24 h): 16.4%
PT (24 h): 14.6 s
Plat (24 h): 123.3 x10_4/uL
RBC (24 h): 634.4 x10_4/ul
Ret (24 h): 7.9%
WBC (24 h): 88.7 x10_2/uL
KIDNEY_L (24 h): 0.9 g
KIDNEY_R (24 h): 0.9 g
KIDNEY_TOTAL (24 h): 1.8 g
LIVER (24 h): 9.9 g
A/G (24 h): 0.9
ALP (24 h): 1572.2 IU/L
ALT (24 h): 47.4 IU/L
AST (24 h): 72.6 IU/L
BUN (24 h): 14.4 mg/dL
CRE (24 h): 0.2 mg/dL
Ca (24 h): 11.2 mg/dL
Cl (24 h): 105.6 meq/L
DBIL (24 h): 0.016 mg/dL
GLC (24 h): 188.6 mg/dL
IP (24 h): 8.9 mg/dL
K (24 h): 4.5 meq/L
LDH (24 h): 131.6 IU/L
Na (24 h): 142.8 meq/L
PL (24 h): 150.4 mg/dL
RALB (24 h): 2.6 g/dL
TBIL (24 h): 0.05 mg/dL
TC (24 h): 81.6 mg/dL
TG (24 h): 80.8 mg/dL
TP (24 h): 5.7 g/dL
gamma-GTP (24 h): 1 IU/L

Reference: ChEMBL document CHEMBL3885861, “Open TG-GATES”
